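Method: 48-hour compound exposure of cells in 96-well plates, five concentrations, linear interpolation of endpoints. The concentration for 50% growth inhibition is given as GI50. TGI: total growth inhibition.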
Key:
Experiment in all cases: DTP human tumour cell line panel, 48 h
LOX IMVI melanoma = system: LOX IMVI melanoma
MDA-MB-435 = system: MDA-MB-435
SF-268 CNS = system: SF-268 CNS
HCC-2998 colon = system: HCC-2998 colon
NCI/ADR-RES ovarian = system: NCI/ADR-RES ovarian
SNB-75 CNS = system: SNB-75 CNS
MALME-3M melanoma = system: MALME-3M melanoma
RXF 393 renal = system: RXF 393 renal
HS 578T breast = system: HS 578T breast
SN12C renal = system: SN12C renal
T-47D breast = system: T-47D breast
SK-OV-3 ovarian = system: SK-OV-3 ovarian
SK-MEL-2 melanoma = system: SK-MEL-2 melanoma
OVCAR-4 ovarian = system: OVCAR-4 ovarian
UACC-62 melanoma = system: UACC-62 melanoma
ACHN renal = system: ACHN renal
NCI-H226 lung = system: NCI-H226 lung
SR leukemia = system: SR leukemia
SK-MEL-28 melanoma = system: SK-MEL-28 melanoma
UO-31 renal = system: UO-31 renal
HOP-62 NSCLC = system: HOP-62 NSCLC
MOLT-4 leukemia = system: MOLT-4 leukemia
BT-549 breast = system: BT-549 breast
COLO 205 colon = system: COLO 205 colon
U251 CNS = system: U251 CNS
HOP-92 NSCLC = system: HOP-92 NSCLC
CAKI-1 renal = system: CAKI-1 renal
NCI-H23 lung = system: NCI-H23 lung
UACC-257 melanoma = system: UACC-257 melanoma

For `Cn1c(=O)c(-c2ccccc2Cl)cc2cnc(NC3CCOCC3)nc21`, the GI50 (LOX IMVI melanoma) was 5.49 µM, the TGI (LOX IMVI melanoma) was > 25 µM and the GI50 (MDA-MB-435) was 7.22 µM. The TGI (MDA-MB-435) was > 25 µM, the GI50 (SF-268 CNS) was 14.6 µM and the TGI (SF-268 CNS) was > 25 µM. For the same molecule, the GI50 (HCC-2998 colon) was > 21.8 µM, the TGI (HCC-2998 colon) was > 25 µM and the GI50 (NCI/ADR-RES ovarian) was 12.9 µM. For the same molecule, the TGI (NCI/ADR-RES ovarian) was > 25 µM, the GI50 (SNB-75 CNS) was 3.82 µM and the TGI (SNB-75 CNS) was > 25 µM. For the same molecule, the GI50 (MALME-3M melanoma) was 7.08 µM, the TGI (MALME-3M melanoma) was > 22.3 µM and the GI50 (RXF 393 renal) was 5.19 µM. The TGI (RXF 393 renal) was > 23.9 µM, the GI50 (HS 578T breast) was 9.12 µM and the TGI (HS 578T breast) was > 25 µM. For the same molecule, the GI50 (SN12C renal) was 8.05 µM, the TGI (SN12C renal) was > 25 µM and the GI50 (T-47D breast) was 18.1 µM. For the same molecule, the TGI (T-47D breast) was > 25 µM, the GI50 (SK-OV-3 ovarian) was 8.89 µM and the TGI (SK-OV-3 ovarian) was > 25 µM. For the same molecule, the GI50 (SK-MEL-2 melanoma) was 6.1 µM, the TGI (SK-MEL-2 melanoma) was 14.7 µM and the GI50 (OVCAR-4 ovarian) was 10.4 µM. The TGI (OVCAR-4 ovarian) was > 25 µM, the GI50 (UACC-62 melanoma) was 6.37 µM and the TGI (UACC-62 melanoma) was > 25 µM. For the same molecule, the GI50 (ACHN renal) was 4.64 µM, the TGI (ACHN renal) was > 25 µM and the GI50 (NCI-H226 lung) was 12.3 µM. The TGI (NCI-H226 lung) was > 25 µM, the GI50 (SR leukemia) was 8.3 µM and the TGI (SR leukemia) was > 25 µM. For the same molecule, the GI50 (SK-MEL-28 melanoma) was 10.7 µM, the TGI (SK-MEL-28 melanoma) was > 25 µM and the GI50 (UO-31 renal) was 6.8 µM. For the same molecule, the TGI (UO-31 renal) was > 22.4 µM, the GI50 (HOP-62 NSCLC) was > 25 µM and the TGI (HOP-62 NSCLC) was > 25 µM. The GI50 (MOLT-4 leukemia) was 10.2 µM, the TGI (MOLT-4 leukemia) was > 25 µM and the GI50 (BT-549 breast) was > 25 µM. The TGI (BT-549 breast) was > 25 µM, the GI50 (COLO 205 colon) was 9.61 µM and the TGI (COLO 205 colon) was > 25 µM. The GI50 (U251 CNS) was 15.1 µM, the TGI (U251 CNS) was > 25 µM and the GI50 (HOP-92 NSCLC) was 4.27 µM. The TGI (HOP-92 NSCLC) was 21.6 µM, the GI50 (CAKI-1 renal) was 6.58 µM and the TGI (CAKI-1 renal) was > 25 µM. The GI50 (NCI-H23 lung) was 18.3 µM, the TGI (NCI-H23 lung) was > 25 µM and the GI50 (UACC-257 melanoma) was 14.8 µM.
